Experimental data: article PMC10257182, “Discovery of senolytics using machine learning” (Nature Communications, 2023)
Read-outs that look alike come from different tables or passages of the source.

Key:
Assay type in all cases: cell-based, human
[1] = tested on: senescent A549 cells (etoposide-induced); assay: Nuclei count senolytic assay, therapy-induced senescence (TIS) model, senescent cells; settings: Homo sapiens, A549, Senescent cells, mean, read-out: Mean % Cell Survival
In short: (§1)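 Nuclei counted by Hoechst 33342 imaging after fixation, following 72 h treatment with compound at 10 nM–10 μM (10-point […], triplicates). Targets were control A549 cells and A549 rendered senescent by 48 h 100 μM etoposide plus 3 days recovery.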

[2] = tested on: non-senescent control A549 cells; assay: Nuclei count senolytic assay, TIS model, non-senescent control cells; settings: Homo sapiens, A549, Control cells, mean, read-out: Mean % Cell Survival
In short: as §1

[3] = tested on: non-senescent control IMR90 ER:RAS cells; assay: Nuclei count (Hoechst, high content imaging) senolytic assay, OIS model, non-senescent control cells; settings: Homo sapiens
In short: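 Senolytic read-out as total nuclei per well by automated Hoechst imaging after 72 h compound exposure (10 μM to 10 nM, 10-point […], triplicate), relative to untreated controls. Paired cultures: IMR90 ER:RAS kept non-senescent or made senescent with 100 nM final 4-OHT; ouabain served as positive control.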

Compound: COC[C@H]1C[C@@H](c2nc(-c3ccc4c(c3)COc3cc5c(ccc6nc([C@@H]7CC[C@H](C)N7C(=O)[C@@H](NC(=O)OC)C(C)C)[nH]c65)cc3-4)c[nH]2)N(C(=O)[C@H](NC(=O)OC)c2ccccc2)C1 [Velpatasvir, velpatasvir, reference compound]
- viability at 10 µM ([1]; log (dose) [M] -5): 114%
- viability at 4.68 µM ([1]; log (dose) [M] -5.33): 105%
- viability at 2.19 µM ([1]; log (dose) [M] -5.66): 120%
- viability at 1 µM ([1]; log (dose) [M] -6): 122%
- viability at 0.468 µM ([1]; log (dose) [M] -6.33): 122%
- viability at 0.219 µM ([1]; log (dose) [M] -6.66): 113%
- viability at 0.1 µM ([1]; log (dose) [M] -7): 112%
- viability at 0.0468 µM ([1]; log (dose) [M] -7.33): 115%
- viability at 0.0219 µM ([1]; log (dose) [M] -7.66): 91.3%
- viability at 0.01 µM ([1]; log (dose) [M] -8): 104%
- viability at 10 µM ([2]; log (dose) [M] -5): 80.9%
- viability at 4.68 µM ([2]; log (dose) [M] -5.33): 84.4%
- viability at 2.19 µM ([2]; log (dose) [M] -5.66): 80.3%
- viability at 1 µM ([2]; log (dose) [M] -6): 52.9%
- viability at 0.468 µM ([2]; log (dose) [M] -6.33): 93.4%
- viability at 0.219 µM ([2]; log (dose) [M] -6.66): 28.7%
- viability at 0.1 µM ([2]; log (dose) [M] -7): 88.2%
- viability at 0.0468 µM ([2]; log (dose) [M] -7.33): 89.2%
- viability at 0.0219 µM ([2]; log (dose) [M] -7.66): 92.1%
- viability at 0.01 µM ([2]; log (dose) [M] -8): 96.1%
- viability at 10 µM ([3]; IMR-90, 72 h, Control, log (dose) [M] -5, 72 h, mean n=3 (Fig 3C), read-out: Mean % Cell Survival): 119%
- viability at 4.677 µM ([3]; IMR-90, 72 h, Control, log (dose) [M] -5.33, 72 h, mean n=3 (Fig 3C), read-out: Mean % Cell Survival): 116%
- viability at 2.188 µM ([3]; IMR-90, 72 h, Control, log (dose) [M] -5.66, 72 h, mean n=3 (Fig 3C), read-out: Mean % Cell Survival): 113%
- viability at 1 µM ([3]; IMR-90, 72 h, Control, log (dose) [M] -6, 72 h, mean n=3 (Fig 3C), read-out: Mean % Cell Survival): 115%
- viability at 0.4677 µM ([3]; IMR-90, 72 h, Control, log (dose) [M] -6.33, 72 h, mean n=3 (Fig 3C), read-out: Mean % Cell Survival): 86.1%
- viability at 0.2188 µM ([3]; IMR-90, 72 h, Control, log (dose) [M] -6.66, 72 h, mean n=3 (Fig 3C), read-out: Mean % Cell Survival): 99.9%
- viability at 0.1 µM ([3]; IMR-90, 72 h, Control, log (dose) [M] -7, 72 h, mean n=3 (Fig 3C), read-out: Mean % Cell Survival): 98.3%
- viability at 0.04677 µM ([3]; IMR-90, 72 h, Control, log (dose) [M] -7.33, 72 h, mean n=3 (Fig 3C), read-out: Mean % Cell Survival): 106%
- viability at 0.02188 µM ([3]; IMR-90, 72 h, Control, log (dose) [M] -7.66, 72 h, mean n=3 (Fig 3C), read-out: Mean % Cell Survival): 110%
- viability at 0.01 µM ([3]; IMR-90, 72 h, Control, log (dose) [M] -8, 72 h, mean n=3 (Fig 3C), read-out: Mean % Cell Survival): 96.2%
- viability at 10 µM ([3]; IMR-90, Control cells, log (dose) [M] -5, individual replicates, SUP FIG 4C, read-out: % Cell Survival): 113%
- viability at 0.2188 µM ([3]; IMR-90, Control cells, log (dose) [M] -6.66, individual replicates, SUP FIG 4C, read-out: % Cell Survival): 91.6%
- viability at 0.04677 µM ([3]; IMR-90, Control cells, log (dose) [M] -7.33, individual replicates, SUP FIG 4C, read-out: % Cell Survival): 101%
- viability at 10 µM ([3]; IMR-90, Control, log (dose) [M] -5, read-out: % Cell Survival): 82.9%
- viability at 4.68 µM ([3]; IMR-90, Control, log (dose) [M] -5.33, read-out: % Cell Survival): 85.2%
- viability at 2.19 µM ([3]; IMR-90, Control, log (dose) [M] -5.66, read-out: % Cell Survival): 80.3%
- viability at 1 µM ([3]; IMR-90, Control, log (dose) [M] -6, read-out: % Cell Survival): 80.7%
- viability at 0.219 µM ([3]; IMR-90, Control, log (dose) [M] -6.66, read-out: % Cell Survival): 86%
- viability at 0.1 µM ([3]; IMR-90, Control, log (dose) [M] -7, read-out: % Cell Survival): 91.2%
- viability at 0.04677 µM ([3]; IMR-90, Control, log (dose) [M] -7.33, read-out: % Cell Survival): 89.7%
- viability at 0.0219 µM ([3]; IMR-90, Control, log (dose) [M] -7.66, read-out: % Cell Survival): 95.3%
- viability at 0.01 µM ([3]; IMR-90, Control, log (dose) [M] -8, read-out: % Cell Survival): 97.1%
